Columns and labels:
H3 receptor = biological target: T1, H3 receptor (Cavia porcellus, UniProt Q9JI35); experiment: H3 Receptor Binding Assay ([3H]R-α-methylhistamine, guinea pig brain membranes); details: 3 nM [3H]R-α-methylhistamine, 30° C., 30 minutes
T1 construct: The source of the H3 receptors in this experiment was guinea pig brain; from tissue; host or cells: guinea pig brain membranes
Experimental: The source of the H3 receptors in this experiment was guinea pig brain. The animals used weighed 400-600 g. The tissue was homogenized using a Polytron in a solution of 50 mM Tris, pH 7.5. The final concentration of tissue in the homogenization buffer was 10% w/v. The homogenates were centrifuged at 1000×g for 10 minutes in order to remove clumps of tissue and debris. The resulting supernatants were then centrifuged at 50,000×g for 20 minutes in order to sediment the membranes, which were next washed 3 times in homogenization buffer (50,000×g for 20 minutes each). The membranes were frozen and stored at -70° C. until needed.
All compounds to be tested were dissolved in DMSO (dimethyl sulfoxide) and then diluted into the binding buffer (50 mM Tris, pH 7.5) such that the final concentration was 2 μg/mL with 0.1% DMSO. Membranes were then added (400 μg of protein) to the reaction tubes. The reaction was started by the addition of 3 nM [^3 H]R-α-methylhistamine (8.8 Ci/mmol) and incubated at 30° C. for 30 minutes. Bound ligand was separated from unbound ligand by filtration, and the amount of radioactive ligand bound to the membranes was quantitated by liquid scintillation spectrometry. All incubations were performed in duplicate and the standard error was less than 10% in all instances.

guinea pig ileum = experiment: Guinea Pig Ileum Assay (electrical field stimulated contractions; H3 agonism/antagonism vs Rα-methylhistamine); format: cell-based; details: for Guinea Pig Ileum: at 1 μg/ml, 1 μM chlorpheniramine in Tyrodes buffer
Experimental: Male guinea pigs (450-500 g) were sacrificed by cervical dislocation. Portions of the ileum (20-40 cm) were removed and placed in Tyrodes solution (NaCl, 8.0; KCl, 0.2; MgCl2.6H2 O, 0.2; CaCl2. 0.13; NaH2 PO4. 0.06; dextrose, 1.0; NaHCO3, 1.0 g/l). The ilea were cut into 2.5 cm segments, mounted between platinum wire coaxial electrodes and placed in water-jacketed organ baths containing 25 ml of the Tyrodes solution. Bath fluid temperature was maintained at 37° C. and aerated with 95% 02-5%CO2. The muscles were suspended from isometric force transducers (Grass FT023C) under 0.3 g resting tension. Contractions were amplified on a Buxco tension monitor and recorded on a Harvard polygraph. Monophasic rectangular-wave electrical pulses were delivered to the tissues every 60 seconds from a stimulator (model S-48, Grass Instruments Co.). The ileum segments were maximally stimulated with 3 volts at 40 Hz frequency and 1 mseconds duration in 1 pulse train every 60 seconds. The duration of 1 msecond was then decreased by 0.1 msecond until the size of the contraction reached 80% of the maximal response. Once this 80% response was determined it was evoked every 60 seconds throughout the experiment. All experiments were conducted with 1μM of chlorpheniramine present in the Tyrodes buffer.
Rα-methylhistamine inhibits the electrical field stimulated contractions of the guinea pig ileum and was used as the H3 agonist reference standard. H3 agonists were studied for their ability to inhibit the electrical field stimulated contractions and their activity was expressed as a percentage of the maximum Rα-methylhistamine effect. Agonists were tested by addition of logarithmically increasing doses to the bath fluid at intervals of 1 minute. […]
Relative potency for agonists was determined from the pD2 calculations (Furchgott, R.F., The Pharmacology of Vascular Smooth Muscle. Pharm. Rev. 7, 183, 1955.) on 5 separate tissues. Relative potency for antagonists was determined from pA2 calculations (See Furchgott, above) on 15 separate tissues.

T1 sequence (Q9JI35 whole entry): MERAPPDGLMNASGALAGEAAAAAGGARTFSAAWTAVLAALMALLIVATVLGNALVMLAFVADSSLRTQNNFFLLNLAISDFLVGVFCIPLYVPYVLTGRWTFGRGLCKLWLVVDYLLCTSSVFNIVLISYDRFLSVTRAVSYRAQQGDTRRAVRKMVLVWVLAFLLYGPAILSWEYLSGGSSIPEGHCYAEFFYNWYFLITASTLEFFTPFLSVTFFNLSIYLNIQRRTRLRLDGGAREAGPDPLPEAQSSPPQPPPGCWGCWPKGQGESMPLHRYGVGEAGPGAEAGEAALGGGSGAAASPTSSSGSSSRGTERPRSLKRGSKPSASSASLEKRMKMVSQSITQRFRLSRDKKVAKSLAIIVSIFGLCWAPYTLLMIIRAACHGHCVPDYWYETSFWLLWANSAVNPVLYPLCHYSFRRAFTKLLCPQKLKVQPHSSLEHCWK

| Compound | H3 receptor Binding IC50 (H3 receptor) [µg/mL] | Guinea Pig Ileum (guinea pig ileum) | IC50 (H3 receptor) [nM] | activity on the guinea pig ileum (guinea pig ileum) |
| --- | --- | --- | --- | --- |
| COC1=C(Br)C(O)C2(C=C1Br)CC(C(=O)NCCc1c[nH]cn1)=NO2 (centres unmarked) [Aerophobin-1] | 4.3 | not active | – | – |
| CN(C)CCCOc1c(Br)cc(CCN(C)C)cc1Br [Aplysamine-1] | – | antagonist | 833 | active on the guinea pig ileum as an H3 -antagonist |

Reference: US5352707A, “Method for treating airway congestion” (Harbor Branch Oceanographic Institution, Inc., priority 1992, dated 1994)
